The values that follow come from patent US20110212997A1, “PIPERIDINE-4-ACETAMIDE DERIVATIVES AND THEIR USE AS MONOAMINE NEUROTRANSMITTER RE-UPTAKE INHIBITORS” (NEUROSEARCH A/S, priority 2008, published 2011).

Where a name gives a salt, the structure may show the parent alone.

Series [1] has as its target T1, noradrenaline (NA) reuptake in synaptosomes (Rattus norvegicus, UniProt Q63380).
T1 construct: in synaptosomes as described in WO 97/16451; from tissue
Briefly: Inhibition of NA reuptake in synaptosomes. Format: biochemical. As to conditions: synaptosomes, 3H-NA; read-out: NA-uptake IC50. The protocol: (§1) Compounds were tested for their ability to inhibit the reuptake of the monoamine neurotransmitters dopamine (DA) noradrenaline (NA) and serotonine (5-HT) in synaptosomes as described in WO 97/16451 (NeuroSearch NS).
(§2) The test values are given as IC50 (the concentration (μM) of the test substance which inhibits the specific binding of ^3H-DA, ^3H-NA, or ^3H-5-HT by 50%).

For series [2], the target named is T2, dopamine (DA) reuptake in synaptosomes (Rattus norvegicus, UniProt P23977).
T2 construct: in synaptosomes as described in WO 97/16451; from tissue
T2 sequence (P23977 whole entry): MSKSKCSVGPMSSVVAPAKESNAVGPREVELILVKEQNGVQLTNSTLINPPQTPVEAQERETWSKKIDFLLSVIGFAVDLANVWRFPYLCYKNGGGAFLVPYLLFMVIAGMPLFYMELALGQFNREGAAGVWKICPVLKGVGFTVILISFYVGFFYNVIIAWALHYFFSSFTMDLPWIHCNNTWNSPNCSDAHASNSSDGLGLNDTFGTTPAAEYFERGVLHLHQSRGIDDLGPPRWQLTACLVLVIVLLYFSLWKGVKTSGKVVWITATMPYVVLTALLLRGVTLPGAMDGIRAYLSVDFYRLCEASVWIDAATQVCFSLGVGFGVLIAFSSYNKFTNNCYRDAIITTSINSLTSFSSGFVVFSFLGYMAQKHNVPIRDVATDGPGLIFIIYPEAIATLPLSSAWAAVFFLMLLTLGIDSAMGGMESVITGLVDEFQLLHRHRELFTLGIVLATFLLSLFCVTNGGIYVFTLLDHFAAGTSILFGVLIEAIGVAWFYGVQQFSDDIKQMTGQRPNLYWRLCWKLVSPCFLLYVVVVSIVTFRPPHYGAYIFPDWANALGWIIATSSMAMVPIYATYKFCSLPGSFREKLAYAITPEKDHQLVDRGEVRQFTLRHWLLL
Briefly: Inhibition of DA reuptake in synaptosomes. The format is biochemical. To be noted: synaptosomes, 3H-DA; read-out: DA-uptake IC50. The protocol:
as §1, §2

The target of series [3] is T3, serotonine (5-HT) reuptake in synaptosomes (Rattus norvegicus, UniProt P31652).
T3 construct: serotonine (5-HT) in synaptosomes as described in WO 97/16451; from tissue
T3 sequence (P31652 whole entry): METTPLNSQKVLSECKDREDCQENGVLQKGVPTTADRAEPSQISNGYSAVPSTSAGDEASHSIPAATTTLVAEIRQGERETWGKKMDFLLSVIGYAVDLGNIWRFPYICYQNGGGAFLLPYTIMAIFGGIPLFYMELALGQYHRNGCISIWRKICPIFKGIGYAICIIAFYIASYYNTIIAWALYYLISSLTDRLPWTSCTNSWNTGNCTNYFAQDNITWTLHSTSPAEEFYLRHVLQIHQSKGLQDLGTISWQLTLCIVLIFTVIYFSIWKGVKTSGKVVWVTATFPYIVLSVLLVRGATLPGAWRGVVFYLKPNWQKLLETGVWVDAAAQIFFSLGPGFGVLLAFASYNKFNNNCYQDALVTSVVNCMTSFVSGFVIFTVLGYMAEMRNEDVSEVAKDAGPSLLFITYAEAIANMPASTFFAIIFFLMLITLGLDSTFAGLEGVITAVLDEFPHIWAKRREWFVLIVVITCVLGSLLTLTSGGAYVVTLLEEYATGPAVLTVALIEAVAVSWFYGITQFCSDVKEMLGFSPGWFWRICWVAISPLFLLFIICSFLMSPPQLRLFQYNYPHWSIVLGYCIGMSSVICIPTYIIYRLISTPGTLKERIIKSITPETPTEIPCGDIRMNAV
Briefly: Inhibition of 5-HT reuptake in synaptosomes. Format: biochemical. As to conditions: 3H-5-HT, read-out: 5-HT-uptake IC50. The procedure: as §1, §2

T1 sequence (Q63380 1-617): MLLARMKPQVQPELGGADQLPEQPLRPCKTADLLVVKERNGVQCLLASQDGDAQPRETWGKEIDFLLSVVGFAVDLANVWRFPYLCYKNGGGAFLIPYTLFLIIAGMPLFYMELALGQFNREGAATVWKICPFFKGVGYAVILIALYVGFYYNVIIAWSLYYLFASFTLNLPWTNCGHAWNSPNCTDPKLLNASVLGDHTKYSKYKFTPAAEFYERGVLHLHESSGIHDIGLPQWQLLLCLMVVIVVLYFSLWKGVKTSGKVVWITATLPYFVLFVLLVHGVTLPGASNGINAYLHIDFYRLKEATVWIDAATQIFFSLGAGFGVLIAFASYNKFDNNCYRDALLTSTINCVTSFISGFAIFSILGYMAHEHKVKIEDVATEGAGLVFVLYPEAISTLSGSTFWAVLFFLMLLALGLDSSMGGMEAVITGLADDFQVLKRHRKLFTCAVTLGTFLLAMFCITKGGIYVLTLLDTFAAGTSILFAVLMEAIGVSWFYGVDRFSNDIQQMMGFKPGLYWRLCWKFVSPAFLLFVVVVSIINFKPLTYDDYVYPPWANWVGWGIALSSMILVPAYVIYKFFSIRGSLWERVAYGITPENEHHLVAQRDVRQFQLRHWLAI

Regarding `CCN(C(=O)CC1CCNCC1)c1cc(Cl)ccc1Cl` (as salt: fumaric acid salt) [Compound C7, N-(2,5-Dichloro-phenyl)-N-ethyl-2-piperidin-4-yl-acetamide], the melting point (in general, the temperature of the solid-liquid transition) fell in the range of 190 to 192 °C.

`CCN(C(=O)CC1CCNCC1)c1c(Cl)cccc1Cl` (as salt: fumaric acid salt) [Compound C8, N-(2,6-Dichloro-phenyl)-N-ethyl-2-piperidin-4-yl-acetamide] gave a melting point of 167 to 169 °C.

For `CCN(C(=O)CC1CCNCC1)c1cc(Cl)cc(Cl)c1` (as salt: fumaric acid salt) [Compound C9, N-(3,5-Dichloro-phenyl)-N-ethyl-2-piperidin-4-yl-acetamide], the melting point was in the range of 151 to 153 °C.

Compound `CCN(C(=O)CC1CCNCC1)c1ccc(Cl)c(Cl)c1Cl` (as salt: fumaric acid salt) [Compound C10, N-Ethyl-2-piperidin-4-yl-N-(2,3,4-trichloro-phenyl)-acetamide] registered a melting point of 62 to 64 °C.

`CCN(C(=O)CC1CCNCC1)c1ccc(Br)c(Br)c1` (as salt: fumaric acid salt) [Compound C11, N-(3,4-Dibromo-phenyl)-N-ethyl-2-piperidin-4-yl-acetamide] came in with a melting point of 58 to 60 °C.

As for `CCCN(C(=O)CC1CCNCC1)c1ccc(Cl)c(Cl)c1` (as salt: fumaric acid salt) [Compound C12, N-(3,4-Dichloro-phenyl)-2-piperidin-4-yl-N-propyl-acetamide], the melting point lay within 55 to 58 °C.

`CCN(C(=O)CC1CCNCC1)c1ccc(Cl)c(Br)c1` (as salt: fumaric acid salt) [Compound C13, N-(3-Bromo-4-chloro-phenyl)-N-ethyl-2-piperidin-4-yl-acetamide] gave a melting point of 141 to 143 °C.

Consider `CCN(C(=O)CC1CCN(C)CC1)c1cccc2ccccc12` (as salt: fumaric acid salt) [Compound D3, N-Ethyl-2-(1-methyl-piperidin-4-yl)-N-naphthalen-1-yl-acetamide], for which the melting point lay within 63 to 66 °C.

`CCN(C(=O)CC1CCNCC1)c1ccc(Br)c(Cl)c1` (as salt: fumaric acid salt) [Compound D4, N-(4-Bromo-3-chloro-phenyl)-N-ethyl-2-piperidin-4-yl-acetamide] yielded a melting point of 159 to 161 °C.

For `CCN(C(=O)CC1CCNCC1)c1ccc(Cl)cc1Cl` (as salt: fumaric acid salt) [Compound D5, N-(2,4-Dichloro-phenyl)-N-ethyl-2-piperidin-4-yl-acetamide], the melting point lay within 112 to 114 °C.

On to `CN1CCC(CC(=O)Nc2ccc(Cl)c(Cl)c2)CC1` (as salt: fumaric acid salt) [Compound D6, N-(3,4-Dichloro-phenyl)-2-(1-methyl-piperidin-4-yl)-acetamide], for which the melting point is 180 to 183 °C.

Compound `CCN(C(=O)CC1CCN(C)CC1)c1cccc(Cl)c1Cl` (as salt: fumaric acid salt) [Compound D8, N-(2,3-Dichloro-phenyl)-N-ethyl-2-(1-methyl-piperidin-4-yl)-acetamide] gave a melting point of 51 to 53 °C.

`CN1CCC(CC(=O)N(C)c2ccc(Cl)c(Cl)c2)CC1` (as salt: fumaric acid salt) [Compound D12, N-(3,4-Dichloro-phenyl)-N-methyl-2-(1-methyl-piperidin-4-yl)-acetamide] showed a melting point of 57 to 59 °C.

`CCN(C(=O)CC1CCN(C)CC1)c1ccc(Cl)cc1Cl` (as salt: fumaric acid salt) [Compound D14, N-(2,4-Dichloro-phenyl)-N-ethyl-2-(1-methyl-piperidin-4-yl)-acetamide] displayed a melting point of 175 to 177 °C.

In turn, `CCN(C(=O)CC1CCN(C)CC1)c1c(Cl)cccc1Cl` (as salt: fumaric acid salt) [Compound D16, N-(2,6-Dichloro-phenyl)-N-ethyl-2-(1-methyl-piperidin-4-yl)-acetamide] returned a melting point of 167 to 169 °C.

Compound `CCN(C(=O)CC1CCN(C)CC1)c1ccc(Cl)c(Cl)c1Cl` (as salt: fumaric acid salt) [Compound D18, N-Ethyl-2-(1-methyl-piperidin-4-yl)-N-(2,3,4-trichloro-phenyl)-acetamide] came in with a melting point of 181 to 183 °C.

Regarding `CCCN(C(=O)CC1CCN(C)CC1)c1ccc(Cl)c(Cl)c1` (as salt: fumaric acid salt) [Compound D20, N-(3,4-Dichloro-phenyl)-2-(1-methyl-piperidin-4-yl)-N-propyl-acetamide], the melting point lay in the range of 144 to 146 °C.

For the compound `CCN(C(=O)CC1CCN(C)CC1)c1ccc(Cl)c(Cl)c1` (as salt: hydrochloric acid salt) [Compound D1, N-(3,4-Dichloro-phenyl)-N-ethyl-2-(1-methyl-piperidin-4-yl)-acetamide], the melting point fell in the range of 153 to 155 °C.

In the case of `CCCN(C(=O)CC1CCN(C)CC1)c1ccc(Cl)c(Cl)c1` [Compound D20, N-(3,4-Dichloro-phenyl)-2-(1-methyl-piperidin-4-yl)-N-propyl-acetamide], the IC50 – broadly, the concentration needed to halve the response being measured – turned out to be 3.4 nM in series [1], 12 nM in series [2] and 700 nM in series [3].

`CCN(C(=O)CC1CCN(C)CC1)c1ccc(Cl)c(Br)c1` [Compound D21, N-(3-Bromo-4-chloro-phenyl)-N-ethyl-2-(1-methyl-piperidin-4-yl)-acetamide]: the IC50 in series [1] was found to be 2.3 nM; in series [2], 12 nM; in series [3], 1200 nM.
